We go through six molecules from ChEMBL document CHEMBL3808287, “AXL Inhibitors in Cancer: A Medicinal Chemistry Perspective” (J Med Chem, 2016).

Some results are limits rather than exact numbers.

In one assay the test system is MDA-MB-231. In words: Antimetastatic activity against human MDA-MB-231-luc-D3H2LN cells xenografted in NCr nu/nu mouse assessed as mouse survival at 125 mg/kg, bid administered daily for 21 days measured on day 22 by bioluminescence imaging analysis. Type of assay: functional.
Assay [1] has as its target Tyrosine-protein kinase ABL1 (Homo sapiens, UniProt P00519). In words: Inhibition of human recombinant ABL by fluorescence polarization assay.
Assay [2] deals with T1, Tyrosine-protein kinase receptor TYRO3 (Homo sapiens, UniProt Q06418).
T1 sequence (Q06418 whole entry): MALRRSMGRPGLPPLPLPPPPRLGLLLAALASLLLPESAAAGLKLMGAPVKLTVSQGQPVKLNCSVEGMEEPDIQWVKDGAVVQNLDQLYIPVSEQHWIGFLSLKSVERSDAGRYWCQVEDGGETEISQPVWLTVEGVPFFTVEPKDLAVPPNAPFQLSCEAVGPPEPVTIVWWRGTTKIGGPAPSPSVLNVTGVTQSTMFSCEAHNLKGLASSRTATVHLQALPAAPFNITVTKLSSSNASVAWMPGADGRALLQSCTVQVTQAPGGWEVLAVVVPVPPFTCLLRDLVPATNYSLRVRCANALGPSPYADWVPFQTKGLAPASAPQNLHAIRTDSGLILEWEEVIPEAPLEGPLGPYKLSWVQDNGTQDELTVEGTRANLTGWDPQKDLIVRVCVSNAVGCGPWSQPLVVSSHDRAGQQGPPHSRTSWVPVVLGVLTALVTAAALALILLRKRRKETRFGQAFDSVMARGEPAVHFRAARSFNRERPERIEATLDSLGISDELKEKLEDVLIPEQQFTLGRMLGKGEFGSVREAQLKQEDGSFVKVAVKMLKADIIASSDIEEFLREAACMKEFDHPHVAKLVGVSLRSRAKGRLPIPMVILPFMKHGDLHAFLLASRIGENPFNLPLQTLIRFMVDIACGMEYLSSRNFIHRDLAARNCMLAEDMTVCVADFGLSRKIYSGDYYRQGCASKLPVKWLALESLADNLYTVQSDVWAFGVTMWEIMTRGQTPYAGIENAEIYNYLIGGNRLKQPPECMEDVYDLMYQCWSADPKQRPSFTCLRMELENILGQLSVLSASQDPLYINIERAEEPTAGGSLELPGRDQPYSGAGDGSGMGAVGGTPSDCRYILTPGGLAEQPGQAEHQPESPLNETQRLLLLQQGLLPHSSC
In words: Inhibition of human recombinant TYRO3 by fluorescence polarization assay.

Assay [3] concerns the target Vascular endothelial growth factor receptor 2 (Homo sapiens, UniProt P35968). The experiment in a line: Inhibition of VEGFR2 (unknown origin).
For assay [4], the target named is T2, Tyrosine-protein kinase receptor UFO (Homo sapiens, UniProt P30530).
T2 sequence (P30530 whole entry): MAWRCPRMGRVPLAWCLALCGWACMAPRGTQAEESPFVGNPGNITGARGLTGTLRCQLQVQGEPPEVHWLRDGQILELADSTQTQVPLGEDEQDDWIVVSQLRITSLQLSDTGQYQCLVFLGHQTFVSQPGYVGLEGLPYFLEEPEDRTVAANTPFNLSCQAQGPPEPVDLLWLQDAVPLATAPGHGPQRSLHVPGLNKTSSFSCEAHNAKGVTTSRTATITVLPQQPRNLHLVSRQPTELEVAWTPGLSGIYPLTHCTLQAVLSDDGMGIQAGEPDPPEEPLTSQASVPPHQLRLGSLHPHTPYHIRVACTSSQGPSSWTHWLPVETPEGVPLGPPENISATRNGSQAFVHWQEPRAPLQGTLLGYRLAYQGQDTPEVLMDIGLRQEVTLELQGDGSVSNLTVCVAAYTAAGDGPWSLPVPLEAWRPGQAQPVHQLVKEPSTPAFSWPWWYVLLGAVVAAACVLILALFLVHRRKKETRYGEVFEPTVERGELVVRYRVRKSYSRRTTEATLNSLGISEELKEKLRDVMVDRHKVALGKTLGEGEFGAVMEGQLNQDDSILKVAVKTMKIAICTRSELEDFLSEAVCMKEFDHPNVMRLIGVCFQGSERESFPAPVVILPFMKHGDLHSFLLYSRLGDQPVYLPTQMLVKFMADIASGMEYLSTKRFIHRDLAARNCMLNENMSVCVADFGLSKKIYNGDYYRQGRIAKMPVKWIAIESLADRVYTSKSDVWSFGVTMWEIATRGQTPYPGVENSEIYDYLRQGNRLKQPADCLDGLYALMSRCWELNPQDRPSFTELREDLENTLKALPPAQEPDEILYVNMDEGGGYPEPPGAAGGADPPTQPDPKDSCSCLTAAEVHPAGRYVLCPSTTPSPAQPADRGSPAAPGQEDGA
In words: Inhibition of AXL (unknown origin) by cell based assay.

In assay [5] the target is T2, Tyrosine-protein kinase receptor UFO. In words: Inhibition of AXL (unknown origin).
For assay [6] the target is unchanged. The experiment in a line: Inhibition of human full length AXL by scintillation counting method in presence of 33P-gammaATP.
For assay [7] the target is unchanged. The experiment in a line: Inhibition of human full length AXL after 4 hrs followed by stimulation with human recombinant Gas6 for 15 minutes by cell based assay.
The target in assay [8] is Hepatocyte growth factor receptor (Homo sapiens, UniProt P08581). The experiment in a line: Inhibition of human recombinant MET expressed in Escherichia coli BL21 infected with T7 phage by qPCR method.
The target of assay [9] is T2, Tyrosine-protein kinase receptor UFO. The experiment in a line: Inhibition of human recombinant AXL expressed in Escherichia coli BL21 infected with T7 phage by qPCR method.
Assay [10] shares this target. The experiment in a line: Inhibition of AXL in human GIST cells. Type of assay: cell-based.

Vascular endothelial growth factor receptor 2, sequence (P35968 whole entry): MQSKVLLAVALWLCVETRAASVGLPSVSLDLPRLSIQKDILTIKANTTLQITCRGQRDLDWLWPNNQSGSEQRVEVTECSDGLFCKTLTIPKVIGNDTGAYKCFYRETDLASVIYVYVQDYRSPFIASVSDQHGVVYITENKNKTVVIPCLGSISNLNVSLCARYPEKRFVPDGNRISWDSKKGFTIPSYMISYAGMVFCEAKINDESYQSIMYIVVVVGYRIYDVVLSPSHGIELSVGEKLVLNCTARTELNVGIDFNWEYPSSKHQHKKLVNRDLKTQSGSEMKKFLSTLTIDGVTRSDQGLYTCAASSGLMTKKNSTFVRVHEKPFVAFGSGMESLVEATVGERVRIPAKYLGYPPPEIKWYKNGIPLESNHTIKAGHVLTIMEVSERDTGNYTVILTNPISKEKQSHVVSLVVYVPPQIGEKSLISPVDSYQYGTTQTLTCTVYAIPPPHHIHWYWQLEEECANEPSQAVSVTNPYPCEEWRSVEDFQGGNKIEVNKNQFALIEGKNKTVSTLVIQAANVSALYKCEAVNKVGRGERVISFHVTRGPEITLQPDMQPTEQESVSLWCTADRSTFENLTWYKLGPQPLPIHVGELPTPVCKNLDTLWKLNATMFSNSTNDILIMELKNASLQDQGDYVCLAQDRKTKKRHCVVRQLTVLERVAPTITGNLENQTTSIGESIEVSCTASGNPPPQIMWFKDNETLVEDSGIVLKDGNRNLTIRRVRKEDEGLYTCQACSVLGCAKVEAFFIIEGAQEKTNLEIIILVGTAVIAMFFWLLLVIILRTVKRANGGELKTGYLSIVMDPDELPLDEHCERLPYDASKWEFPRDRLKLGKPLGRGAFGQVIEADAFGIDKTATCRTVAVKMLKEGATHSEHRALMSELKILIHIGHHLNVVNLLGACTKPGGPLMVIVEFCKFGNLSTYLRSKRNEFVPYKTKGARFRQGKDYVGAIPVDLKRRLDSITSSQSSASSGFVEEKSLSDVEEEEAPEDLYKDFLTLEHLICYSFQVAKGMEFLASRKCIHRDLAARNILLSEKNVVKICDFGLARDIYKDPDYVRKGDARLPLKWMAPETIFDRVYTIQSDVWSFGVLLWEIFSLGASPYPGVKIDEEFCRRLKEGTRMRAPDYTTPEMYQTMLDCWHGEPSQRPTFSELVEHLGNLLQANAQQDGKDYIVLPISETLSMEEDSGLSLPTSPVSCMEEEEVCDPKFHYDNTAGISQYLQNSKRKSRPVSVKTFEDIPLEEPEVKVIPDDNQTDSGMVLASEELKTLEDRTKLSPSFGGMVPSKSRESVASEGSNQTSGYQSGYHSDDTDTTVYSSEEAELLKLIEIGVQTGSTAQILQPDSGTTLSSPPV
Tyrosine-protein kinase ABL1, sequence (P00519 whole entry): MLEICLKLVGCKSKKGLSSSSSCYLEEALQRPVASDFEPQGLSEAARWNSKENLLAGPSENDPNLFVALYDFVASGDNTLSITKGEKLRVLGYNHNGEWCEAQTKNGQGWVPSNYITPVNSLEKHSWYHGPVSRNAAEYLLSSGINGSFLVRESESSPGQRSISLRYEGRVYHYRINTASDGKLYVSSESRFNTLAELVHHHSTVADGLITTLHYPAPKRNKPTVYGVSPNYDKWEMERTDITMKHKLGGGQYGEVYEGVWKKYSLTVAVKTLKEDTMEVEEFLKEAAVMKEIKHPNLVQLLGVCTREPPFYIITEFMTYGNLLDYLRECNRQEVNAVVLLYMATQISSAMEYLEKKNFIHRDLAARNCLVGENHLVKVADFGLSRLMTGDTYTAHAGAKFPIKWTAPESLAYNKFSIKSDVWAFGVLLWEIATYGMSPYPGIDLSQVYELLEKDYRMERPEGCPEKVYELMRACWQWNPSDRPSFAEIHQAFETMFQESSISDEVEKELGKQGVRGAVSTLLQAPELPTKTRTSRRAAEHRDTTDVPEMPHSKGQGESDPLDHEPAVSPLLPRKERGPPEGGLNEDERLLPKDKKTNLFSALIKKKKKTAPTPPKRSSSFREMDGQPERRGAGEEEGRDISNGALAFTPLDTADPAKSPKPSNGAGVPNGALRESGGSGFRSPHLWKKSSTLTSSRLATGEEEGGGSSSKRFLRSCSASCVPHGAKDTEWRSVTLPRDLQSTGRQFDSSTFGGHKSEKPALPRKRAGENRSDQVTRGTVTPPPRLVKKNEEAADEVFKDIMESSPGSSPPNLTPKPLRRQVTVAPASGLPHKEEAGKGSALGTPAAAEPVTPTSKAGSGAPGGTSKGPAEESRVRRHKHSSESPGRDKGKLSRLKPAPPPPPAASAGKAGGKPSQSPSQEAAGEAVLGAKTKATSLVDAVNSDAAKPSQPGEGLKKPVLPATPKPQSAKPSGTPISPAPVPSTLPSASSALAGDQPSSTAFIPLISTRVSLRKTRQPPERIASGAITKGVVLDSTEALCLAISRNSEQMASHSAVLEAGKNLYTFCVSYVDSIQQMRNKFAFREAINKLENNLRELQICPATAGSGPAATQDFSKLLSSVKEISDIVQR
Hepatocyte growth factor receptor, sequence (P08581 whole entry): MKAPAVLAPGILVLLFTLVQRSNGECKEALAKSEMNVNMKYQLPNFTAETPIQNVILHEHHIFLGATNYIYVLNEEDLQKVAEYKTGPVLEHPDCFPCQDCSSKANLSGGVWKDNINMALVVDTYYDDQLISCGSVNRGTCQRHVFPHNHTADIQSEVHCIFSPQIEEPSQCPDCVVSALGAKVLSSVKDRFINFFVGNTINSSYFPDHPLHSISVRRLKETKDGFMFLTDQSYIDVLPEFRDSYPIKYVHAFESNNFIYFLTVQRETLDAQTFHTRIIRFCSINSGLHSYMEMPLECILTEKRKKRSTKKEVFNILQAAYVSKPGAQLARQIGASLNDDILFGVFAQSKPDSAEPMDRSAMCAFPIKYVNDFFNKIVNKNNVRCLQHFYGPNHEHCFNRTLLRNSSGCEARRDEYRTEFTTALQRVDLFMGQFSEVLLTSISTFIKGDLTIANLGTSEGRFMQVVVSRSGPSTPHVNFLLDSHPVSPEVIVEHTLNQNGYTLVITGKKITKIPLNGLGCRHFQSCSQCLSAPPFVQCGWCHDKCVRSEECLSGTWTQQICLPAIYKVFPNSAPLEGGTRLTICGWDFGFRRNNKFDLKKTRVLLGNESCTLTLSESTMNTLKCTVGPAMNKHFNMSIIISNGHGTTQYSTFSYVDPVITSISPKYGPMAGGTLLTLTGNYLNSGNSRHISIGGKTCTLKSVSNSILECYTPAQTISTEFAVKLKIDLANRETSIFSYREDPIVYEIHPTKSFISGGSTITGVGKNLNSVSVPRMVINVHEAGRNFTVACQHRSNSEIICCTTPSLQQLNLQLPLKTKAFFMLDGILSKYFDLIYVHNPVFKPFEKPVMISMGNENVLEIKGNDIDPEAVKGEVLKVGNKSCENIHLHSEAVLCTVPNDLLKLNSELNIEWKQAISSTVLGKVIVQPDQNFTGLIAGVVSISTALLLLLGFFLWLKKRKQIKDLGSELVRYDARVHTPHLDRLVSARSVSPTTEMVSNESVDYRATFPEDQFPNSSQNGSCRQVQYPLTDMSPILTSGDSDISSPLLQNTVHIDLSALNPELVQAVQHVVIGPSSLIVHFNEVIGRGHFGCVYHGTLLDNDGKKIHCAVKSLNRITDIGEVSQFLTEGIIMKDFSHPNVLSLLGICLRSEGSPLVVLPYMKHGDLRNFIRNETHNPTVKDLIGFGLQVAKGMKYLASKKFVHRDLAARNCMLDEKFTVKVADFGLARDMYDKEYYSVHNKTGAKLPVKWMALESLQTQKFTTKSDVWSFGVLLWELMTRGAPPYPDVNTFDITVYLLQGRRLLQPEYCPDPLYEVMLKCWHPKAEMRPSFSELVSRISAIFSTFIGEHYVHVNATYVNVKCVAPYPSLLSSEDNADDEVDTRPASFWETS

For the molecule `Nc1nc(Nc2ccc3c(c2)CC[C@@H](N2CCCC2)CC3)nn1-c1cc2c(nn1)-c1ccccc1CCC2` [BEMCENTINIB], the survival at 125 mg/kg with MDA-MB-231 was greater than 35%. Moreover, the 50% inhibitory concentration (IC50) in assay [1] and in assay [2] was greater than 700 nM throughout.
On to `COCCNCc1ccc(-c2cc3nccc(Oc4ccc(NC(=S)NC(=O)Cc5ccc(F)cc5)cc4F)c3s2)nc1` [GLESATINIB], for which the half-maximal inhibitory concentration (IC50) in assay [3] was 1 nM.
For the molecule `Cc1c[nH]c2nc(Nc3ccc(N4CCN(C)CC4)c(F)c3)nc(-c3cccc(CC#N)c3)c12`, the half-inhibitory concentration (IC50) in assay [4] is less than 1000 nM; in assay [5], 58 nM.
Take `Cc1ccc(C(=O)Nc2ccc(Oc3cc4cnn(C)c4cc3-c3cn[nH]c3)c(F)c2)c(=O)n1-c1ccc(F)cc1` [MERESTINIB]: the IC50 in [6] came out at 11 nM; in [7], 2 nM.
In the case of `Cc1c(C(=O)Nc2ccc(Oc3ccnc4[nH]cc(-c5ccccc5)c34)c(F)c2)c(=O)n(-c2ccc(F)cc2)n1C`, the concentration for half-maximal inhibition (IC50) is 48 nM in [8], 10 nM in assay [9] and less than 500 nM in assay [4].
The molecule `S=C(NCc1ccc2c(c1)OCO2)N1CCN(c2ncnc3c2oc2ccccc23)CC1` [AMUVATINIB] gave a half-maximal inhibitory concentration (IC50) in assay [10] of less than 1000 nM.
